Among the test systems are SK-MEL-2 melanoma; UO-31 renal; MCF7 breast; SW-620 colon; T-47D breast; A549 NSCLC; K-562 leukemia; NCI-H226 lung.
Common to all, as to assay: NCI anticancer screen, dose series, 48 h

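Where inhibition never reached the appropriate level, the endpoint shown equals the highest concentration tested. Otherwise, values were interpolated linearly from a five-concentration, 48-hour dose response in 96-well plates. GI50: concentration for 50% inhibition of growth. Definition used: TGI = concentration required for complete inhibition of growth.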

For `N#CC1C(N)=NNC12Nc1ccccc1S2` (configuration not stated), the GI50 in the test with SK-MEL-2 melanoma was 6.28 µM; in the test on UO-31 renal it was 33.1 µM; with MCF7 breast, 37.5 µM; in the test on SW-620 colon, 31.2 µM; in the test on T-47D breast it was 4.04 µM; in the test on A549 NSCLC, 9.61 µM. The GI50 in the test on K-562 leukemia was 14.1 µM. Also, the TGI in the test with SK-MEL-2 melanoma was 43.9 µM; in the test on UO-31 renal, > 100 µM; with MCF7 breast it was > 100 µM; in the test with SW-620 colon, > 100 µM; with T-47D breast it was 50.3 µM; with A549 NSCLC, 31.5 µM. Also, the TGI in the test on K-562 leukemia is 34.7 µM.
Take `C=CC[N+]1(CC)CCN=C1CCCCCCCCCCCCCCCCC` (configuration not stated): the GI50 is 0.538 µM in the test on SK-MEL-2 melanoma; 1.14 µM in the test on UO-31 renal; 0.346 µM with MCF7 breast; 0.499 µM with SW-620 colon; 0.315 µM with T-47D breast. The TGI in the test with SK-MEL-2 melanoma is 1.59 µM; in the test with UO-31 renal it was 2.43 µM; with MCF7 breast, 1.28 µM; with SW-620 colon, 1.71 µM; in the test on T-47D breast, 1.62 µM.
As for `c1ccc(C2CCCCC2)c(OCCCCCN2CCNCC2)c1`, the GI50 in the test on UO-31 renal was 5.46 µM; in the test on MCF7 breast, 1.89 µM; in the test on NCI-H226 lung, 22.4 µM; with SW-620 colon, 1.82 µM; in the test with T-47D breast, 1.92 µM; with A549 NSCLC, 4.81 µM. The GI50 in the test on K-562 leukemia was 0.313 µM. The TGI with UO-31 renal worked out at 21.1 µM; in the test on MCF7 breast, 4.36 µM; in the test on NCI-H226 lung it was 48.5 µM; with SW-620 colon it was 3.8 µM; with T-47D breast, 5.16 µM; in the test with A549 NSCLC it was 20.2 µM. Further, the TGI in the test with K-562 leukemia amounted to 1.7 µM.
Take `C[C@H]1CN(C2COC2)CCN1c1ccc(Nc2cc(-c3ccnc(N4CCn5c(cc6c5CC(C)(C)C6)C4=O)c3CO)cn(C)c2=O)nc1`: the GI50 with SK-MEL-2 melanoma is 74.2 µM; in the test with UO-31 renal it was 21.7 µM; with MCF7 breast it was 28.7 µM; with NCI-H226 lung, 19.6 µM; in the test on SW-620 colon, 47.8 µM; in the test with T-47D breast it was 19.2 µM. The GI50 with A549 NSCLC was 56.8 µM. The TGI in the test on SK-MEL-2 melanoma was > 100 µM; with UO-31 renal, > 100 µM; with MCF7 breast it was > 100 µM; in the test with NCI-H226 lung, 46.5 µM; in the test on SW-620 colon, > 100 µM; in the test with T-47D breast, > 100 µM. Further, in the test with A549 NSCLC, the TGI was > 100 µM.
Consider `COc1ccc(-c2c3c(N)c4c(nc3nc3c2c(C)nn3-c2ccccc2)CCCC4)cc1`, for which the GI50 with SK-MEL-2 melanoma is 2.63 µM; in the test on UO-31 renal, 2.46 µM; in the test with MCF7 breast, 2.57 µM; with NCI-H226 lung, 19.6 µM; in the test on SW-620 colon it was 3.05 µM; in the test with A549 NSCLC it was 3.01 µM. The GI50 in the test with K-562 leukemia was 2.3 µM. The TGI was found to be 5.95 µM with SK-MEL-2 melanoma; 11.5 µM in the test on UO-31 renal; 8.88 µM with MCF7 breast; 52.5 µM in the test with NCI-H226 lung; 11.8 µM with SW-620 colon; 11 µM with A549 NSCLC. In the test on K-562 leukemia, this molecule registered a TGI of 6.85 µM.
As to `O=C(CO)C1CC2C=CC1C2` (configuration not stated), the TGI in the test with SK-MEL-2 melanoma, in the test on UO-31 renal, with SW-620 colon, in the test with A549 NSCLC and in the test with K-562 leukemia was > 100 µM throughout.
Take `CC1CCC2C(CN(CC3=C(C(F)(F)F)OC4OC5(C)CCC6C(C)CCC3C46OO5)CC3=C(C(F)(F)F)OC4OC5(C)CCC6C(C)CCC3C46OO5)=C(C(F)(F)F)OC3OC4(C)CCC1C32OO4` (configuration not stated): the GI50 with SK-MEL-2 melanoma was 36.6 µM; with UO-31 renal, 29.1 µM; with MCF7 breast, 20.9 µM; in the test on NCI-H226 lung, 19.4 µM; with T-47D breast it was 3.97 µM; in the test on A549 NSCLC, 12.1 µM. Further, the GI50 in the test on K-562 leukemia was 5.58 µM. The TGI with SK-MEL-2 melanoma was > 100 µM; in the test on UO-31 renal it was > 100 µM; with MCF7 breast it was 59.9 µM; with NCI-H226 lung it was 57.8 µM; with T-47D breast it was 27.2 µM; in the test with A549 NSCLC, 66.3 µM. Further, in the test with K-562 leukemia, the TGI was determined as 22.1 µM.
Consider `Clc1ccc([I+]c2ccc(Cl)cc2Cl)c(Cl)c1`, for which the GI50 in the test with SK-MEL-2 melanoma was 2.62 µM; in the test with UO-31 renal, 1.48 µM; with MCF7 breast it was 1.87 µM; in the test on SW-620 colon, 1.25 µM; with A549 NSCLC it was 2.66 µM; in the test on K-562 leukemia, 2.03 µM. Also, the TGI with SK-MEL-2 melanoma is 5 µM; in the test on UO-31 renal it was 2.98 µM; in the test on MCF7 breast, > 100 µM; with SW-620 colon it was 3.75 µM; in the test on A549 NSCLC, 7.71 µM; in the test on K-562 leukemia it was 5.1 µM.
As to `COc1cc(/C=C/C(=O)O[C@H]2[C@H](O[C@@H]3O[C@@H](C)[C@H](O)[C@@H](O)[C@H]3O)[C@@H](O)[C@H](OCCc3ccc(O)c(O)c3)O[C@@H]2COC2OCC(O)(CO)C2O)ccc1O` (some centres not stated), the GI50 with SK-MEL-2 melanoma is > 100 µM; in the test on UO-31 renal, > 100 µM; in the test with NCI-H226 lung, > 100 µM; in the test on SW-620 colon, 20.1 µM; with T-47D breast, > 100 µM; in the test with A549 NSCLC it was > 100 µM. In the test on K-562 leukemia, the GI50 was 63.3 µM. The TGI was > 100 µM in the test with SK-MEL-2 melanoma; > 100 µM in the test on UO-31 renal; > 100 µM in the test with NCI-H226 lung; 46 µM with SW-620 colon; > 100 µM with T-47D breast; > 100 µM with A549 NSCLC. The TGI in the test with K-562 leukemia is > 100 µM.
Consider `CC1CCN(CCOc2ccc(CNc3ccc4nc(CCC5CCCCC5)[nH]c4c3)cc2)CC1`, for which the GI50 with SK-MEL-2 melanoma is 1.83 µM; in the test with UO-31 renal, 1.38 µM; in the test on MCF7 breast it was 1.73 µM; in the test on NCI-H226 lung it was 1.63 µM; in the test with SW-620 colon, 1.7 µM; with K-562 leukemia, 0.594 µM. The TGI with SK-MEL-2 melanoma turned out to be 3.41 µM; in the test with UO-31 renal it was 2.67 µM; with MCF7 breast, 3.8 µM; in the test with NCI-H226 lung, 3.48 µM; in the test with SW-620 colon it was 3.35 µM; in the test with K-562 leukemia, 2.44 µM.
Consider `COC1=C(OC)C(=O)C(CCCCCCCCCCO)=C(C)C1=O`, for which the GI50 is 3.2 µM in the test with SK-MEL-2 melanoma; 12.7 µM in the test on UO-31 renal; 1.96 µM in the test on MCF7 breast; 13.8 µM with NCI-H226 lung; 14.7 µM in the test on SW-620 colon; 2.44 µM in the test with T-47D breast. Besides, in the test with A549 NSCLC, the GI50 is 15.3 µM. Further, the TGI amounted to 8.1 µM with SK-MEL-2 melanoma; 26.6 µM with UO-31 renal; 4.45 µM in the test with MCF7 breast; 29.9 µM with NCI-H226 lung; 30.9 µM in the test with SW-620 colon; 7.43 µM in the test with T-47D breast. Besides, the TGI with A549 NSCLC came to 34.8 µM.
